The source of these data is article PMC5602538, “Assessment of the Drug Interaction Potential of Unconjugated and GalNAc3-Conjugated 2′-MOE-ASOs” (Molecular Therapy. Nucleic Acids, 2017).

One series concerns the target CYP2D6 (Homo sapiens, UniProt P10635). The following applies: hepatocytes.
Another series deals with T1, P-gp.
T1 construct: host or cells: MDCK-MDR1 (MDCK cells stably transfected with MDR1)
In words: P-gp substrate study, bi-directional flux in MDCK-MDR1 cells. Format: in vitro ADME. As to conditions: 10 μM ASO, Papp B to A / Papp A to B. Here is the method:
(§1) MDCK-MDR1 cells and MDCK-II cells transfected with BCRP were washed with HBSS at 37°C. Wells of the culture plate served as the apical compartment, and 150 μL of HBSS solutions was added to the apical wells. These solutions also contain one of the following: vehicle (for probe substrate controls), 100 μM test article (for test article inhibition experiments), 1 μM Ko143 (for BCRP inhibition), or 3 μM elacridar (for P-gp inhibition). A 96-well receiver tray was prepared with each well containing 300 μL of buffer solution corresponding to the apical wells. Receiver tray wells served as the basal compartment. The plate and receiver tray were assembled and incubated at 37°C for 30 min. The solution was then aspirated from the apical compartment and the 96-well plate was removed from the receiver tray. Donor and receiver wells for inhibition or donor (containing substrate) and receiver (without substrate) wells for substrate studies were then prepared for bi-directional flux studies. For the probe substrate transport assays, HBSS in each donor well contained one of the following probe substrates: BCRP, 2 μM [^3H]-prazosin; or P-gp, 100 nM [^3H]-quinidine. For positive control inhibition assays, HBSS contained the reference inhibitor in both donor and receiver wells, with the probe substrate only in donor wells. […] These samples were counted on a 1450 Microbeta (PerkinElmer). For samples containing test articles, samples were quantitated using LC-MS.
(§2) For BCRP and P-gp, apparent permeability Papp was determined using the equation Papp=(Vr/(A×C0))×(Cr/Δt) whereby Papp is the apparent permeability, Vr is the volume of the receiver compartment (mL), C0 is the initial concentration of the donor solution, A is the monolayer area (cm^2), Cr is the receiver well concentration at the end of the incubation, and Δt represents the change in time from t = 0 (s). The efflux ratio (ER) was determined by dividing Papp in the B→A direction by that in the A→B direction as: ER=Papp(B→A)/Papp(A→B).

The next series concerns T2, OATP1B1.
T2 construct: expressed in transfected cells; host or cells: MDCK-II
The series can be described thus: OATP1B1 substrate uptake study in MDCK cells. Format: in vitro ADME. As to conditions: 10 μM ASO. The method, then:
A 96-well cell culture plate containing a monolayer of MDCK-II cells grown on a permeable support and a corresponding receiver tray was used. The basolateral compartment of the culture plate and wells were washed with warm HBSS three times, with wells of the culture plate serving as the apical compartment. The wash was aspirated by adding 150 μL of 37°C HBSS to both compartments. Plates were incubated at 37°C with orbital shaking at 60 rpm for 15 min for OAT1, OAT3, OCT1, OCT2, OATP1B1, and OATP1B3 (±5 min). The pre-incubation buffer from both compartments was aspirated and 150 μL of the following was added to the basal compartment. For the probe substrate transport assay, HBSS in each well contained one of following probe substrates (positive control for transport), OCT1, 2 μM [^3H]-MPP^+; OCT2, 10 μM [^14C]-metformin; OAT1, 2 μM [^3H]-p-aminohippurate; OAT3, 10 μM [^3H]-p-aminohippurate; OATP1B1, 2 μM [^3H]-estradiol-17 β-D-glucuronide; and OATP1B3, 2 μM [^3H]-cholecystokinin octapeptide (CCK-8). […] Inhibition studies contained HBSS in each well, the probe substrate, and 100 μM of each test article, whereas substrate studies contained HBSS in each well and 10 μM of each test article. […] Samples containing probe substrate were added to 200 μL of scintillation fluid and counted on a 1450 Microbeta (PerkinElmer), whereas samples containing the test article were kept frozen. Test article concentrations, including control samples, were evaluated by an LC-MS method.
Signal to noise for probe substrates was calculated by dividing the uptake of the probe substrate in transporter-expressing cells by the uptake of probe substrate in control cells not expressing the transporter of interest. Percent inhibition was calculated by dividing the net-transporter-mediated substrate uptake in the presence of the test article or the reference inhibitor by the net-transporter-mediated substrate uptake in the absence of the inhibitor according to the equation: %inhibition=100−(100×(transporter-mediateduptake)withinhibitor/(transporter-mediateduptake)withoutinhibitor).

The test system of the next series is T3, BCRP.
T3 construct: expressed in transfected cells; host or cells: MDCK-II cells
In words: BCRP substrate study, bi-directional flux in MDCK cells. As to conditions: 10 μM ASO, Papp B to A / Papp A to B. Format: in vitro ADME. Here is the method:
as §1, §2

A further series deals with CYP2E1 (Homo sapiens, UniProt P05181). The following applies: hepatocytes.
CYP2E1, sequence (P05181 whole entry): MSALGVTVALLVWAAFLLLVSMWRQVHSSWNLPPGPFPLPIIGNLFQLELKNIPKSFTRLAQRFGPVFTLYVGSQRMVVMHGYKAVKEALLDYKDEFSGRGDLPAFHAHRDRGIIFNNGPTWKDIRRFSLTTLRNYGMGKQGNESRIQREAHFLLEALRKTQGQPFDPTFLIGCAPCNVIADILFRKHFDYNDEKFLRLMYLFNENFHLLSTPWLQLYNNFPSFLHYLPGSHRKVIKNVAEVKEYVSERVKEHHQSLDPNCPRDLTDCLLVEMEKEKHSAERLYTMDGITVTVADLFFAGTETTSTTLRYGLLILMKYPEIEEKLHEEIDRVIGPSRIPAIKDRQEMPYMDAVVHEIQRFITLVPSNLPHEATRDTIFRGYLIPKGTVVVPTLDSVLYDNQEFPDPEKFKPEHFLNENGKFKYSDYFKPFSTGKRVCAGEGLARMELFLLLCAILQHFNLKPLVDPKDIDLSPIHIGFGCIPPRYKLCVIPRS

A word on the pIC50: it is −log10 of the IC50, conventionally taken in molar units. Read a high pIC50 as a low IC50.

pIC50: −log10 of the molar value. {GalNAc3} = trishexylamino-C6 triantennary GalNAc conjugate; e = 2'-O-(2-methoxyethyl) (MOE); d = 2'-deoxy (DNA)

CYP2D6, sequence (P10635 whole entry): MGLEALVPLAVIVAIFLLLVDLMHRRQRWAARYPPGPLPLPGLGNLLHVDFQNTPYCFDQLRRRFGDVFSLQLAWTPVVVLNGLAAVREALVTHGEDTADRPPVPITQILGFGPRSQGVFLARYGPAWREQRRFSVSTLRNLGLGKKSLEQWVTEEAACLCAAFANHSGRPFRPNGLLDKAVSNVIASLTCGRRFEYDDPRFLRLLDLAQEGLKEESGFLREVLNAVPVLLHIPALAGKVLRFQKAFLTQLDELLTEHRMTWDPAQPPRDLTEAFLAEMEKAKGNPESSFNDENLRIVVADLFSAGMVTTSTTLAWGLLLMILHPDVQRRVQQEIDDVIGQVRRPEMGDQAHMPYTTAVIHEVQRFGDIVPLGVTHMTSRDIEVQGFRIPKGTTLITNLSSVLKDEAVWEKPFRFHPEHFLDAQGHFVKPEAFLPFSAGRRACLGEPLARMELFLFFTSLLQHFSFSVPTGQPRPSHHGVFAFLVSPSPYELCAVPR
Method for CYP2D6: (§3) Preincubations were performed in 50 μL of Williams’ Medium E with 2 mM salicylamide. The salicylamide was included to reduce possible phase II conjugation to the precursor phase I metabolites. […] Human hepatocytes (pooled from 5 donors) were thawed and prepared according to the vendor’s protocol. […] Incubations were carried out at 37°C with 5% CO2. The incubation time was 45 min for phenacetin, diclofenac, dextromethorphan, midazolam, bupropion, chlorzoxazone, and testosterone and 90 min for paclitaxel and (S)-mephenytoin. The reactions were stopped by adding 200 μL of ice-cold acetonitrile (can) with tolbutamide (100 ng/mL) as the internal standard to 100 μL of hepatocyte suspension (1:2, v/v). The 96-well plate was then vortexed at 1,700 rpm for 3 min and centrifuged at 3,500 rpm for 10 min at 20°C. The supernatants were analyzed using liquid chromatography-tandem MS (LC-MS/MS).
Method for CYP2E1: as §3

Turning to “ISIS 304801: 20-mer (5-10-5) 2′-MOE gapmer PS backbone antisense inhibitor of apoC-III, sequence AGCTTCTTGTCCAGCTTTAT (sugars from the 5' end e5 d10 e5, all phosphorothioate, methylation of C not given here)”, the pIC50 in the series with CYP2D6 and in the series with CYP2E1 was under 4.00 each time. Moreover, the “Efflux ratio, P-gp” value in the series on P-gp is on record as at most 2.0. Besides, the “OATP1B1-mediated uptake relative to corresponding controls” value in the series with OATP1B1 is given as under 2 fold. Also, the “Efflux ratio, BCRP” value in the series with BCRP was at most 2.0.
In the case of “ISIS 420915: 20-mer 2′-MOE gapmer PS backbone antisense inhibitor of transthyretin, sequence TCTTGGTTACATGAAATCCC (all phosphorothioate, sugars by position and methylation of C not given here; 2'-MOE gapmer)”, the pIC50 in the series with CYP2D6 and with CYP2E1 was under 4.00 each time. The “Efflux ratio, P-gp” value with P-gp is at most 2.0. Moreover, in the series with OATP1B1, the “OATP1B1-mediated uptake relative to corresponding controls” value is recorded as under 2 fold. Moreover, the “Efflux ratio, BCRP” value with BCRP is at most 2.0.
Take “ISIS 681257: 20-mer 2′-MOE gapmer PS/PO mixed backbone ASO conjugated to 5′-trishexylamino GalNAc3, targets Lp(a), sequence TGCTCCGTTGGTGCTTGTTC (5' {GalNAc3}, sugars by position and backbone not given here; 2'-MOE gapmer with mixed PS/PO backbone)”: in the series on P-gp, the “Efflux ratio, P-gp” value is reported as at most 2.0. The “OATP1B1-mediated uptake relative to corresponding controls” value with OATP1B1 is on record as under 2 fold. Moreover, in the series on BCRP, the “Efflux ratio, BCRP” value is on record as at most 2.0.
